This note sets out measurements from patent publication US8105608B2, “Method of treatment using ligand-immunogen conjugates” (Purdue Research Foundation, priority 2000, dated 2012).

This test has as its system M109 cells. The test can be described thus: Survival of mice with M109 cells implanted intraperitoneally close to the liver. The class given is in vivo. The settings on record: Example 16; folate-FITC 1500 nmoles/kg, IFN-α 7.5×10^4 units/day days 7, 8, 9, 11, 14; FITC-KLH immunized; 5 mice per group; PBS 17 days.

Description: Furthermore, in an effort to reduce the time required to obtain long-term survival data, the tumor cells were implanted intraperitoneally close to the liver. […] Aminofluorescein was injected along with the various cytokine combinations as a control because this compound is not linked to folate and will not retarget anti-fluorescein antibodies to tumor cells.
Each mouse was injected with 0.2 ml of a 1:10 dilution of the antibody stock solution on days 1, 4, 9, and 14 after tumor implantation to achieve NK cell depletion.
Additionally, the animals were immunized with FITC-labeled keyhole limpit hemocyanin (KLH) rather than FITC-labeled BSA.
Aminofluorescein was injected along with the IL-2, IFN-α cytokine combination as a control because this compound is not linked to folate and will not retarget anti-fluorescein antibodies to tumor cells.
Additionally, the animals were immunized with DNP-labeled keyhole limpit hemocyanin (KLH).
Additionally, the animals (5 mice per group) were immunized with FITC-labeled keyhole limpit hemocyanin (KLH) rather than FITC-labeled BSA.

Regarding IFN-α, the median survival time is 17 days.
